Read-outs that look alike come from different tables or passages of the source.

Among the data in patent US20040248958A1, “Heterocyclic amide derivatives” (priority 2001, published 2004) are chromatographic logP values, retold here.

A short description of this data set: logP determination by HPLC on reversed-phase column (EEC Directive 79/831 Annex V.A8). The format is physicochemical. The conditions noted are these: reversed-phase HPLC column (C18), preparation examples. The protocol:
The logP values indicated were determined in accordance with EEC Directive 79/831 Annex V.A8 by means of HPLC (High Performance Liquid Chromatography) on a reversed-phase column (C 18). Temperature: 43° C. (a) Eluents for determination in the acidic range: 0.1% aqueous phosphoric acid, acetonitriie; linear gradient from 10% acetonitrile to 90% acetonitrile. (b) Eluents for determination in the neutral range: 0.01 molar aqueous phosphate buffer solution, acetonitrile; linear gradient from 10% acetonitrile to 90% acetonitrile.

The mark [1] stands for this setting: pH 2.3, HPLC C18, 43° C., read-out: logP (pH 2.3).

In the case of `Cc1ccc(S(=O)(=O)Nn2c(-c3cc(C)cc(C)c3)nc(C)c2C)cc1` [IV-1], the chromatographic logP under setting [1] is 1.69.
Take `Cc1ccc(C(=O)Nn2c(-c3ccccc3)nc(C)c2C)cc1` [Example I-2]: the chromatographic logP (pH 7.5, HPLC C18, 43° C., read-out: logP (pH 7.5)) was 2.17.
In the case of `Cc1cc(C)cc(-c2nc(C)c(C)n2N)c1` [II-1], the chromatographic logP under setting [1] was determined as 0.96.
In the case of `CCc1ccc(C(=O)Nn2c(-c3cc(C)cc(C)c3)nc(C)c2C)cc1` [Example I-1], under setting [1], the chromatographic logP was 1.97.
